Data published in patent publication US8003785B2 (Takeda Pharmaceutical Company Limited, priority 2008, dated 2011).

Each compound was assayed against T1, PLK1 (Homo sapiens, UniProt P53350) (assay: Biochemical Characterization Assay: HTRF kinase assay, GST-PLK1 phosphorylation of GST-p53). Details: GST-PLK1, GST-p53 substrate, ATP.
T1 construct: Full-length, active GST-PLK1 is purified from Sf9 insect cells; made in house; host or cells: Sf9 insect cells
Summary of the method: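 Full-length active GST-PLK1 (Sf9, 3 ug/mL) phosphorylated full-length GST-p53 (E. coli) in Kinase Assay Buffer for 35 min at 37 °C. Stopped with EDTA; phospho-p53 detected by HTRF with anti-phospho-p53, Eu-anti-rabbit and APC-anti-GST antibodies.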

T1 sequence (P53350 whole entry): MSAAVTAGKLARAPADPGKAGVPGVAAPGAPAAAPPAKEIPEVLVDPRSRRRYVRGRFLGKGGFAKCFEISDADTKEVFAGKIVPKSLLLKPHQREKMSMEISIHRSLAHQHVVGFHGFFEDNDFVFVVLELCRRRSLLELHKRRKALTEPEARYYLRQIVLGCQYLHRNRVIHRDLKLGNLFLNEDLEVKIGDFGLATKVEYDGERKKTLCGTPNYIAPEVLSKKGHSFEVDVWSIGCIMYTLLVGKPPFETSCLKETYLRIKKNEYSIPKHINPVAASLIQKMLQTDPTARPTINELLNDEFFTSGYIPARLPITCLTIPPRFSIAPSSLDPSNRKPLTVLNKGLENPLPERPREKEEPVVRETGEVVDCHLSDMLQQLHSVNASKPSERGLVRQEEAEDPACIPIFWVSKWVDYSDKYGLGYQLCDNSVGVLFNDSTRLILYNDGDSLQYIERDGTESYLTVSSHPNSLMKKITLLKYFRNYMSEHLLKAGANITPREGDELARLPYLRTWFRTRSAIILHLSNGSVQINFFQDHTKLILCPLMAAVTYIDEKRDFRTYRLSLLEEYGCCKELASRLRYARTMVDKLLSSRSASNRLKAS

| IC50 | Compound |
| --- | --- |
| 1 to 50 nM | CCN(CC)CCCNC(=O)c1ccc(Nc2ncc3c(n2)N(C2CCCC2)CC(F)(F)C(=O)N3C)c(OC)c1 [Example I-123, 4-(9-cyclopentyl-7,7-difluoro-5-methyl-6-oxo-6,7,8,9-tetrahydro-5H-pyrimido[4,5-b][1,4]diazepin-2-ylamino)-N-(3-diethylamino-propyl)-3-methoxy-benzamide] |
| 1 to 50 nM | COc1cc(C(=O)N(C)C)ccc1Nc1ncc2c(n1)N(C1CCCC1)CC(F)(F)C(=O)N2C [Example I-125, 4-(9-cyclopentyl-7,7-difluoro-5-methyl-6-oxo-6,7,8,9-tetrahydro-5H-pyrimido[4,5-b][1,4]diazepin-2-ylamino)-3-methoxy-N,N-dimethyl-benzamide] |
| > 5000 nM | NC(=O)c1ccc(Nc2ncc3c(n2)N(C2CCCC2)CC(F)(F)C(=O)N3)cc1 [Example I-132, 4-(9-cyclopentyl-7,7-difluoro-6-oxo-6,7,8,9-tetrahydro-5H-pyrimido[4,5-b][1,4]diazepin-2-ylamino)-benzamide] |
| 500 to 5000 nM | CNC(=O)c1ccc(Nc2ncc3c(n2)N(C2CCCC2)CC(F)(F)C(=O)N3)cc1 [Example I-133, 4-(9-cyclopentyl-7,7-difluoro-6-oxo-6,7,8,9-tetrahydro-5H-pyrimido[4,5-b][1,4]diazepin-2-ylamino)-N-methyl-benzamide] |
| 51 to 500 nM | CN1CCC(NC(=O)c2ccc(Nc3ncc4c(n3)N(C3CCCC3)CC(F)(F)C(=O)N4)cc2)CC1 [Example I-134, 4-(9-cyclopentyl-7,7-difluoro-6-oxo-6,7,8,9-tetrahydro-5H-pyrimido[4,5-b][1,4]diazepin-2-ylamino)-N-(1-methyl-piperidin-4-yl)-benzamide] |
| 500 to 5000 nM | CN(C)CCCNC(=O)c1ccc(Nc2ncc3c(n2)N(C2CCCC2)CC(F)(F)C(=O)N3)cc1 [Example I-135, 4-(9-cyclopentyl-7,7-difluoro-6-oxo-6,7,8,9-tetrahydro-5H-pyrimido[4,5-b][1,4]diazepin-2-yl-amino)-N-(3-dimethyl-amino-propyl)-benzamide] |
| 500 to 5000 nM | CCN1C(=O)C(F)(F)CN(C2CCCC2)c2nc(Nc3ccc(C(N)=O)cc3)ncc21 [Example I-139, 4-(9-cyclopentyl-5-ethyl-7,7-difluoro-6-oxo-6,7,8,9-tetrahydro-5H-pyrimido[4,5-b][1,4]diazepin-2-ylamino)-benzamide] |
| 500 to 5000 nM | CCN1C(=O)C(F)(F)CN(C2CCCC2)c2nc(Nc3ccc(C(=O)NC)cc3)ncc21 [Example I-140, 4-(9-cyclopentyl-5-ethyl-7,7-difluoro-6-oxo-6,7,8,9-tetrahydro-5H-pyrimido[4,5-b][1,4]diazepin-2-ylamino)-N-methyl-benzamide] |
| 51 to 500 nM | CCN1C(=O)C(F)(F)CN(C2CCCC2)c2nc(Nc3ccc(C(=O)NC4CCN(C)CC4)cc3)ncc21 [Example I-141, 4-(9-cyclopentyl-5-ethyl-7,7-difluoro-6-oxo-6,7,8,9-tetrahydro-5H-pyrimido[4,5-b][1,4]diazepin-2-ylamino)-N-(1-methyl-piperidin-4-yl)-benzamide] |
| 500 to 5000 nM | CCN1C(=O)C(F)(F)CN(C2CCCC2)c2nc(Nc3ccc(C(=O)NCCCN(C)C)cc3)ncc21 [Example I-142, 4-(9-cyclopentyl-5-ethyl-7,7-difluoro-6-oxo-6,7,8,9-tetrahydro-5H-pyrimido[4,5-b][1,4]diazepin-2-yl-amino)-N-(3-dimethyl-amino-propyl)-benzamide] |
| 500 to 5000 nM | CCN1C(=O)C(F)(F)CN(C2CCCC2)c2nc(Nc3ccc(C(=O)NC4CCOCC4)cc3)ncc21 [Example I-143, 4-(9-cyclopentyl-5-ethyl-7,7-difluoro-6-oxo-6,7,8,9-tetrahydro-5H-pyrimido[4,5-b][1,4]diazepin-2-ylamino)-N-(tetrahydro-pyran-4-yl)-benzamide] |
| 500 to 5000 nM | CCCN1C(=O)C(F)(F)CN(C2CCCC2)c2nc(Nc3ccc(C(N)=O)cc3)ncc21 [Example I-145, 4-(9-cyclopentyl-7,7-difluoro-6-oxo-5-propyl-6,7,8,9-tetrahydro-5H-pyrimido[4,5-b][1,4]diazepin-2-ylamino)-benzamide] |
| 500 to 5000 nM | CCCN1C(=O)C(F)(F)CN(C2CCCC2)c2nc(Nc3ccc(C(=O)NC)cc3)ncc21 [Example I-146, 4-(9-cyclopentyl-7,7-difluoro-6-oxo-5-propyl-6,7,8,9-tetrahydro-5H-pyrimido[4,5-b][1,4]diazepin-2-ylamino)-N-methyl-benzamide] |
| 51 to 500 nM | CCCN1C(=O)C(F)(F)CN(C2CCCC2)c2nc(Nc3ccc(C(=O)NC4CCN(C)CC4)cc3)ncc21 [Example I-147, 4-(9-cyclopentyl-7,7-difluoro-6-oxo-5-propyl-6,7,8,9-tetrahydro-5H-pyrimido[4,5-b][1,4]diazepin-2-ylamino)-N-(1-methyl-piperidin-4-yl)-benzamide] |
| 500 to 5000 nM | CCCN1C(=O)C(F)(F)CN(C2CCCC2)c2nc(Nc3ccc(C(=O)NCCCN(C)C)cc3)ncc21 [Example I-148, 4-(9-cyclopentyl-7,7-difluoro-6-oxo-5-propyl-6,7,8,9-tetrahydro-5H-pyrimido[4,5-b][1,4]diazepin-2-yl-amino)-N-(3-dimethyl-amino-propyl)-benzamide] |
| 500 to 5000 nM | CCCN1C(=O)C(F)(F)CN(C2CCCC2)c2nc(Nc3ccc(C(=O)NC4CCOCC4)cc3)ncc21 [Example I-149, 4-(9-cyclopentyl-7,7-difluoro-6-oxo-5-propyl-6,7,8,9-tetrahydro-5H-pyrimido[4,5-b][1,4]diazepin-2-ylamino)-N-(tetrahydro-pyran-4-yl)-benzamide] |

More lines, now with the values behind:

| Compound | IC50 |
| --- | --- |
| COc1cc(C(=O)NCC(O)CN2CCN(C(=O)OC(C)(C)C)CC2)ccc1Nc1ncc2c(n1)N(C1CCCC1)CC(F)(F)C(=O)N2C (stereo not shown) [Example I-120, 4-{3-[4-(9-cyclopentyl-7,7-difluoro-5-methyl-6-oxo-6,7,8,9-tetrahydro-5H-pyrimido[4,5-b][1,4]diazepin-2-ylamino)-3-methoxy-benzoylamino]-2-hydroxy-propyl}-piperazine-1-carboxylic acid tert-butyl ester] | 51 to 500 nM |
| COc1cc(C(=O)NCC(O)CN2CCNCC2)ccc1Nc1ncc2c(n1)N(C1CCCC1)CC(F)(F)C(=O)N2C (stereo not shown) [Example I-121, 4-(9-cyclopentyl-7,7-difluoro-5-methyl-6-oxo-6,7,8,9-tetrahydro-5H-pyrimido[4,5-b][1,4]diazepin-2-ylamino)-N-(2-hydroxy-3-piperazin-1-yl-propyl)-3-methoxy-benzamide] | 1 to 50 nM |
| COc1cc(C(=O)NC2CCN(Cc3ccccc3)CC2)ccc1Nc1ncc2c(n1)N(C1CCCC1)CC(F)(F)C(=O)N2C [Example I-122, N-(1-benzyl-piperidin-4-yl)-4-(9-cyclopentyl-7,7-difluoro-5-methyl-6-oxo-6,7,8,9-tetrahydro-5H-pyrimido[4,5-b][1,4]diazepin-2-ylamino)-3-methoxy-benzamide] | 1 to 50 nM |
| COc1cc(C(=O)NC2CCOCC2)ccc1Nc1ncc2c(n1)N(C1CCCC1)CC(F)(F)C(=O)N2C [Example I-124] | 1 to 50 nM |
| COc1cc(C(=O)N2CCCCC2)ccc1Nc1ncc2c(n1)N(C1CCCC1)CC(F)(F)C(=O)N2C [Example I-126, 9-cyclopentyl-7,7-difluoro-2-[2-methoxy-4-(piperidine-1-carbonyl)-phenylamino]-5-methyl-5,7,8,9-tetrahydro-pyrimido[4,5-b][1,4]diazepin-6-one] | 51 to 500 nM |
| COc1cc(C(=O)N2CCOCC2)ccc1Nc1ncc2c(n1)N(C1CCCC1)CC(F)(F)C(=O)N2C [Example I-127, 9-cyclopentyl-7,7-difluoro-2-[2-methoxy-4-(morpholine-4-carbonyl)-phenylamino]-5-methyl-5,7,8,9-tetrahydro-pyrimido[4,5-b][1,4]diazepin-6-one] | 1 to 50 nM |
| COc1cc(C(=O)N2CCN(C)CC2)ccc1Nc1ncc2c(n1)N(C1CCCC1)CC(F)(F)C(=O)N2C [Example I-128, 9-cyclopentyl-7,7-difluoro-2-[2-methoxy-4-(4-methyl-piperazine-1-carbonyl)-phenylamino]-5-methyl-5,7,8,9-tetrahydro-pyrimido[4,5-b][1,4]diazepin-6-one] | 1 to 50 nM |
| COc1cc(C(=O)Nc2ccncc2)ccc1Nc1ncc2c(n1)N(C1CCCC1)CC(F)(F)C(=O)N2C [Example I-129, 4-(9-cyclopentyl-7,7-difluoro-5-methyl-6-oxo-6,7,8,9-tetrahydro-5H-pyrimido[4,5-b][1,4]diazepin-2-ylamino)-3-methoxy-N-pyridin-4-yl-benzamide] | 1 to 50 nM |
| COc1cc(C(=O)Nc2cccnc2)ccc1Nc1ncc2c(n1)N(C1CCCC1)CC(F)(F)C(=O)N2C [Example I-130, 4-(9-cyclopentyl-7,7-difluoro-5-methyl-6-oxo-6,7,8,9-tetrahydro-5H-pyrimido[4,5-b][1,4]diazepin-2-ylamino)-3-methoxy-N-pyridin-3-yl-benzamide] | 1 to 50 nM |
| O=C(NC1CCOCC1)c1ccc(Nc2ncc3c(n2)N(C2CCCC2)CC(F)(F)C(=O)N3)cc1 [Example I-136, 4-(9-cyclopentyl-7,7-difluoro-6-oxo-6,7,8,9-tetrahydro-5H-pyrimido[4,5-b][1,4]diazepin-2-ylamino)-N-(tetrahydro-pyran-4-yl)-benzamide] | 500 to 5000 nM |
| COc1cc(C(=O)NC2CCN(C)CC2)ccc1Nc1ncc2c(n1)N(C1CCCC1)CC(F)(F)C(=O)N2 [Example I-137, 4-(9-cyclopentyl-7,7-difluoro-6-oxo-6,7,8,9-tetrahydro-5H-pyrimido[4,5-b][1,4]diazepin-2-ylamino)-3-methoxy-N-(1-methyl-piperidin-4-yl)-benzamide] | 51 to 500 nM |
| COc1cc(C(=O)NC2CCN(C)CC2)ccc1Nc1ncc2c(n1)N(C1CCCC1)CC(F)(F)C(=O)N2CC(F)(F)F [Example I-150, 4-[9-cyclopentyl-7,7-difluoro-6-oxo-5-(2,2,2-trifluoro-ethyl)-6,7,8,9-tetrahydro-5H-pyrimido[4,5-b][1,4]diazepin-2-ylamino]-3-methoxy-N-(1-methyl-piperidin-4-yl)-benzamide] | 500 to 5000 nM |
